The text below walks through data of patent US8722930B2, “Protease inhibitors” (Orion Corporation, priority 2009, dated 2014).

Assay [1] deals with T1, Purified recombinant matriptase (Homo sapiens, UniProt Q9Y5Y6).
T1 sequence (Q9Y5Y6 1-855): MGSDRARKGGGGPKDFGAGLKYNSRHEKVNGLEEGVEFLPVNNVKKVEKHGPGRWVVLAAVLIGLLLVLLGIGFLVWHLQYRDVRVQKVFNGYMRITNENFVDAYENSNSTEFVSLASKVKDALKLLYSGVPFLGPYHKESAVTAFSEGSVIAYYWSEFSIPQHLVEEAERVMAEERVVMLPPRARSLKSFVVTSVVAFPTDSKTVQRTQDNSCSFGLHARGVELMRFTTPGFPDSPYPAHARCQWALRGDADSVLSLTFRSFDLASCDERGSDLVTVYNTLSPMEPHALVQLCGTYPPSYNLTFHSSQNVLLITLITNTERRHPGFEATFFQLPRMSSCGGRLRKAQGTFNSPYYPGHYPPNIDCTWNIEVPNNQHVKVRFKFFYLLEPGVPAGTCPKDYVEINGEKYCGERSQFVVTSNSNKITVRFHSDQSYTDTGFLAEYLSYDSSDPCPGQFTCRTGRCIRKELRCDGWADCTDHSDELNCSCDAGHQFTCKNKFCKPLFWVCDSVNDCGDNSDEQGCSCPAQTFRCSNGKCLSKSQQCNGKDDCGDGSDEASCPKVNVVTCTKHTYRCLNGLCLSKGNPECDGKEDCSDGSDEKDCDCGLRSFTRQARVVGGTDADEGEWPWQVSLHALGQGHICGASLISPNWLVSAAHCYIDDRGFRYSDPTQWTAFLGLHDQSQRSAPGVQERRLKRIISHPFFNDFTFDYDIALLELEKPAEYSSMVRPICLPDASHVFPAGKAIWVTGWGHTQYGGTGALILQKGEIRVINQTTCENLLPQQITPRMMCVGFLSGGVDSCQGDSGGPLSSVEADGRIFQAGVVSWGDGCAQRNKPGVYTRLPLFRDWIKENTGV
As to the kind of experiment: Matriptase fluorescence-based enzymatic assay (Boc-Gln-Ala-Arg-AMC cleavage). Type of assay: biochemical. An excerpt: (§1) Purified recombinant matriptase was used in a fluorescence-based screening assay using Gln-Ala-Arg peptide as a substrate. In this assay the cleavage of AMC from Boc-Gln-Ala-Arg-7-amido-4 methylcoumarin hydrochloride (Boc-Gln-Ala-Arg-AMC) (Sigma, USA) was monitored by measuring the increase in fluorescence intensity of AMC released upon proteolytic cleavage at 480 nm (kex=360 nm). Similarly, enzymatic assays in fluorimetric or colorimetric format for uPA, Factor Xa, thrombin, plasmin and trypsin (Sigma, USA) were established using substrates pyroGlu-Gly-Arg-pNA.HCl, Boc-Gln-Ala-Arg-AMC, CH3OCO-D-CHA-Gly-Arg-PNA.AcoH, Pyro Glu-Phe-Lys—pNA.HCl and Boc-Gln-Ala-Arg-AMC, respectively.

Assay [2] deals with T2, uPA (Homo sapiens, UniProt P00749).
T2 construct: purchased Sigma, USA
As to the kind of experiment: uPA enzymatic assay (selectivity screening). Type of assay: biochemical. As to conditions: for uPA Inhibition (%): % Inhibition at 5 μM.
Description: as §1

For assay [3], the target named is T3, Factor Xa (Homo sapiens, UniProt P00742).
T3 construct: uPA, Factor Xa, thrombin, plasmin and trypsin (Sigma, USA); purchased Sigma, USA
The experiment in a line: Factor Xa enzymatic assay (selectivity screening). Type of assay: biochemical. The settings on record: for Factor Xa Inhibition (%): % Inhibition at 5 μM.
Description: as §1

The target of assay [4] is T4, thrombin (Homo sapiens, UniProt P00734).
T4 construct: uPA, Factor Xa, thrombin, plasmin and trypsin (Sigma, USA); purchased Sigma, USA
The experiment in a line: Thrombin enzymatic assay (selectivity screening). Type of assay: biochemical. As to conditions: for Thrombin Inhibition (%): % Inhibition at 5 μM.
Description: as §1

Assay [5] deals with T5, plasmin (Homo sapiens, UniProt P00747).
T5 construct: uPA, Factor Xa, thrombin, plasmin and trypsin (Sigma, USA); purchased Sigma, USA
As to the kind of experiment: Plasmin enzymatic assay (selectivity screening). The format is biochemical. As to conditions: for Plasmin Inhibition (%): % Inhibition at 5 μM.
Description: as §1

The test system of assay [6] is trypsin. As to the kind of experiment: Trypsin enzymatic assay (selectivity screening). Type of assay: biochemical. As to conditions: % Inhibition at 5 μM.
Description: as §1

The subject of assay [7] is DU145 cells. As to the kind of experiment: Soft agar colony formation assay. As to conditions: Homo sapiens, DU-145, 504 h, about three weeks, read-out: EC50 for inhibition of soft agar colony formation. The format is cell-based. Here is the method: Soft agar colony formation assays were performed to measure the long-term survival and anchorage-independent growth capacity of tumor cells. DU145 cells were seeded in 0.7% nutrient agar with the test compound on an underlay of 1.4% nutrient agar in a six well plate. On the day following cell seeding, liquid cell culture medium containing the compound was added to the well to prevent the agar from drying out and was changed regularly till the completion of the experiment. The cells were allowed to form colonies for a period of about three weeks following which the colonies were stained with 0.005% solution of crystal violet in 25% methanol. The colonies were counted under a dissecting microscope.

Assay [8] concerns DU145 cells. As to the kind of experiment: Cytotoxicity, Calcein AM assay, DU145. The format is cell-based. As to conditions: Homo sapiens, DU-145, 96 h, four days of incubation, read-out: Cell survival at 10 μM (%). How it is done: Cytotoxicity of the compounds was tested in cell lines or primary cells using Calcein AM assay. This assay measures cell viability by quantitation of cleaved fluorescent product of a cell permeable substrate that is retained in the cytoplasm of cells with uncompromised cytoplasmic membrane integrity. The cells were seeded into 96-well plate and allowed to adhere for a day followed by addition of compound at several different concentrations. After four days of incubation with the compound, media was removed from the cells followed by addition of PBS and addition of Calcein AM reagent at 1 μM final concentration. The cells were then allowed to incubate at 37° C. for half an hour followed by reading on the fluorimeter. Percent viability was calculated based on fluorescence value obtained at 485/520 nm with cut off at 495 nm.

Assay [9] has as its system DU145 cells. As to the kind of experiment: Migration assay in transwell chambers. The settings on record: Homo sapiens, DU-145, 24 hours. The format is cell-based. How it is done: Migration assays were performed to determine the effect of matriptase inhibitors on cell motility. Cells were seeded with 10 μM test compound into transwell chambers and allowed to migrate for 24 hours using a combination of 10% FBS and 5 μg/ml fibronectin as chemoattractant.

The test system of assay [10] is DU145 cells. As to the kind of experiment: Cell invasion assay (matrigel transwell). As to conditions: Homo sapiens, DU-145, 48 hours. The format is cell-based. Here is the method:
Cell invasion assays were done for quantitating the degree to which invasive cells penetrate a barrier essentially as in migration assay but with the use of matrigel consisting of basement membrane components in the transwell inserts and incubating for 48 hours. The barrier used was matrigel. This was followed by fixing and staining of the transwell insert with 0.5% crystal violet in 25% methanol in order to visualize cells migrated.

[11] abbreviates: Table 1, read-out: Matriptase Inhibition IC50.
The mark [12] stands for this setting: Table 2, read-out: Matriptase IC50.

Like-named read-outs stand apart in the source and are kept apart here.

For orientation: IC50 means the midpoint of a concentration-inhibition curve. The inhibition is the drop in the measured response relative to a control, in per cent. The term EC50 denotes the concentration at which the effect is half-maximal.

T3 sequence (P00742 235-488 limits assumed): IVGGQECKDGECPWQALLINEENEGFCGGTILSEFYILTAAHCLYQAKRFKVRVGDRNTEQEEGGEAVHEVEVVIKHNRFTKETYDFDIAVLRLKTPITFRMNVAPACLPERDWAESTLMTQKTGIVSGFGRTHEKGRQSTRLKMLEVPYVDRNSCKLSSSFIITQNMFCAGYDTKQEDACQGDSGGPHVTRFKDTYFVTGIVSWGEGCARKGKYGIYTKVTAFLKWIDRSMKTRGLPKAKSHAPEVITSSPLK
T3 sequence (P00742 41-179 partner limits assumed): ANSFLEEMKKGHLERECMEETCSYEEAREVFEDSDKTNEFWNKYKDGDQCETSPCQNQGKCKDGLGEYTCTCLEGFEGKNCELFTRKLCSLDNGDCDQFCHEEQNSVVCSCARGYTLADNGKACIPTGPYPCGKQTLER
T5 sequence (P00747 581-810 limits assumed, species assumed): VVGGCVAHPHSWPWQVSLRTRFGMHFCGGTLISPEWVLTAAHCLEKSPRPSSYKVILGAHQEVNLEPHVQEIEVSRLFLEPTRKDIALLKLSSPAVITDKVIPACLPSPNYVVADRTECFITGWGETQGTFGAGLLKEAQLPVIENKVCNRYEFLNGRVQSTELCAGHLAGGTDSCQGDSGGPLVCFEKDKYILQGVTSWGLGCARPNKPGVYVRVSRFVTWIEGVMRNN
T5 sequence (P00747 97-580 partner limits assumed, species assumed): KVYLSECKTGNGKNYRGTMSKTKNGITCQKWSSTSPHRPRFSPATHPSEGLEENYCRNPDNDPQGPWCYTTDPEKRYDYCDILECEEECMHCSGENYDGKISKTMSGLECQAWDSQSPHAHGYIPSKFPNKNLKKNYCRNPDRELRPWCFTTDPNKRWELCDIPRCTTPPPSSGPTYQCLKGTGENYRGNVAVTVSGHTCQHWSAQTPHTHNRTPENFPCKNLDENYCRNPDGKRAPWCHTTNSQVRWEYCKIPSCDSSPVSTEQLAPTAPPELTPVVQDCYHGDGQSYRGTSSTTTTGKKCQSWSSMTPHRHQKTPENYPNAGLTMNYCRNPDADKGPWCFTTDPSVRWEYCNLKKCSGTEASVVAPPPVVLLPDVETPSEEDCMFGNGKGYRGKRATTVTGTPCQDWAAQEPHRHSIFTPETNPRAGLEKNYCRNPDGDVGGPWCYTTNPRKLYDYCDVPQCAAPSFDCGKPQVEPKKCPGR

As for `N=C(N)c1ccc(Oc2cc(C(=O)NC3CCC(N)CC3)cc(Oc3ccc(C(=N)N)cc3)n2)cc1` (centres unmarked) [Example 13, N-(4-Amino-cyclohexyl)-2,6-bis-(4-carbamimidoyl-phenoxy)-isonicotinamide], the IC50 in assay [1] was 20 nM. Moreover, the inhibition at 5 µM came to 13% in [2], 84% in assay [3], 28% in assay [4] and 33% in assay [5]. Besides, the “Trypsin Inhibition (%)” value in [6] was 92%. Moreover, the EC50 in assay [7] was found to be 500 nM.

As to `N=C(N)c1ccc(Oc2cc(OCc3cccc(CN)c3)cc(C(=O)NC3CCC(N)CC3)c2)cc1` (centres unmarked) [Example 47, N-(4-Aminocyclohexyl)-3-(3-aminomethylbenzyloxy)-5-(4-carbamimidoylphenoxy)benzamide], the concentration for half-maximal inhibition (IC50) in assay [1] (setting [11]) and in assay [1] (setting [12]) was 38 nM throughout. For the same molecule, the inhibition at 5 µM in assay [2] is -1%; in assay [3], 71%; in assay [4] it was 3%; in assay [5], 18%. The viability at 10 µM in [8] was 100%. For the same molecule, the figures for the inhibition at 10 µM in assay [9] and in assay [10] were 39% and 63%, respectively. In [7], the EC50 was 900 nM.

As for `N=C(N)c1ccc(Oc2cc(OCc3ccc(Br)cc3)cc(C(=O)NC3CCC(N)CC3)c2)cc1` (centres unmarked) [Example 51, N-(4-Aminocyclohexyl)-3-(4-bromobenzyloxy)-5-(4-carbamimidoylphenoxy)benzamide], the concentration for half-maximal inhibition (IC50) was 379 nM in [1] (setting [11]) and 122 nM in assay [1] (setting [12]). Further, the inhibition at 5 µM came out at 23% in [2], 52% in [3], 41% in assay [4] and 25% in [5]. In addition, the viability at 10 µM in assay [8] is 93%. Also, the inhibition at 10 µM was -4% in [9] and 61% in assay [10]. The 50% effective concentration (EC50) in assay [7] stood at 700 nM.

With `N=C(N)c1ccc(COc2cc(Oc3ccc(C(=N)N)cc3)cc(C(=O)N3CCC(CCN)CC3)c2)cc1` [Example 58, 2-{1-[3-(4-carbamimidoyl-benzyloxy)-5-(4-carbamimidoyl-phenoxy)benzoyl]-piperidin-4-yl}ethylamine], the concentration for half-maximal inhibition (IC50) in [1] (setting [11]) and in assay [1] (setting [12]) was 35 nM in each case. Also, the inhibition at 5 µM came out at 7% in [2], 73% in [3], 70% in [4] and 42% in [5]. For the same molecule, the viability at 10 µM in assay [8] is 100%. Besides, the results for the inhibition at 10 µM in assay [9] and in [10] were 63% and 91%, respectively. For the same molecule, in [7], the concentration giving a half-maximal response (EC50) was determined as 100 nM.

In the case of `Cc1cc(Oc2cc(Oc3ccc(C(=N)N)cc3)cc(C(=O)NC3CCC(N)CC3)c2)ccc1C(=N)N` (centres unmarked) [Example 74, N-(4-Aminocyclohexyl)-3-(4-carbamimidoyl-3-methylphenoxy)-5-(4-carbamimidoylphenoxy)benzamide], the 50% inhibitory concentration (IC50) in [1] (setting [11]) was determined as 13.2 nM; in [1] (setting [12]) it was 13 nM. Further, the inhibition at 5 µM in [2] worked out at 11%; in assay [3], 86%; in assay [4] it was 33%; in assay [5], 10%. Moreover, the “Trypsin Inhibition (%)” value in assay [6] worked out at 28%. The viability at 10 µM in assay [8] was 95%. Moreover, the figures for the inhibition at 10 µM in assay [9] and in [10] were 18% and 45%, respectively.

On to `N=C(N)c1ccc(Oc2cc(Oc3ccc(C(=N)N)cc3)cc(C(=O)OC3CCC(N)CC3)c2)cc1` (centres unmarked) [Example 103, 3,5-Bis-(4-carbamimidoyl-phenoxy)-benzoic acid 4-amino-cyclohexyl Ester], for which, in assay [1] (setting [11]), the half-maximal inhibitory concentration (IC50) came to 2 nM. Moreover, the inhibition at 5 µM came to 25% in assay [2], 92% in [3], 44% in assay [4] and 58% in [5]. Also, the “Trypsin Inhibition (%)” value in [6] worked out at 92%.

Take `N=C(N)c1ccc(Oc2cc(NC(=O)[C@H]3CC[C@H](N)CC3)cc(Oc3ccc(C(=N)N)cc3)c2)cc1` [Example 108, Trans-4-amino-cyclohexanecarboxylic Acid[3,5-bis-(4-carbamimidoyl-phenoxy)-phenyl]-amide]: the IC50 in assay [1] (setting [11]) is 4 nM. Moreover, in [2], the “uPA Inhibition (%)” value is recorded as 23%. In addition, the “Factor Xa Inhibition (%)” value in [3] is listed as 81%. In addition, in assay [4], the “Thrombin Inhibition (%)” value is 49%. In addition, in assay [5], the “Plasmin Inhibition (%)” value amounted to 61%. The “Trypsin Inhibition (%)” value in assay [6] is recorded as 76%.

Take `N=C(N)c1ccc(Oc2cc(NC(=O)C3CCN(CCO)CC3)cc(Oc3ccc(C(=N)N)cc3)c2)cc1` [Example 111, 1-(2-Hydroxy-ethyl)-piperidine-4-carboxylic acid[3,5-bis-(4-carbamimidoyl-phenoxy)-phenyl]-amide]: the half-maximal inhibitory concentration (IC50) in assay [1] (setting [11]) was 29 nM. For the same molecule, the “uPA Inhibition (%)” value in assay [2] is listed as 17%. For the same molecule, the “Factor Xa Inhibition (%)” value in [3] is recorded as 74%. Also, the “Thrombin Inhibition (%)” value in assay [4] is 44%. Besides, the “Plasmin Inhibition (%)” value in assay [5] is given as 46%. For the same molecule, the “Trypsin Inhibition (%)” value in assay [6] stood at 63%.

Consider `N=C(N)c1cccc(COc2cc(NC(=O)C3CCC(N)CC3)cc(OCc3cccc(C(=N)N)c3)c2)c1` (centres unmarked) [Example 119, 4-Amino-cyclohexanecarboxylic acid[3,5-bis-(3-carbamimidoyl-benzyloxy)-phenyl]-amide], for which the IC50 in assay [1] (setting [11]) came out at 7 nM. The “uPA Inhibition (%)” value in assay [2] amounted to 14%. Further, in assay [3], the “Factor Xa Inhibition (%)” value worked out at 97%. Further, the “Thrombin Inhibition (%)” value in assay [4] is on record as 47%. For the same molecule, the “Plasmin Inhibition (%)” value in [5] turned out to be 30%. For the same molecule, the “Trypsin Inhibition (%)” value in assay [6] was 77%.
